Key:
Assay in all cases: Kinase panel radiometric filter binding (33P-ATP)
Type in all cases: biochemical
Design in all cases: dose or concentration left out as unconfirmed
[1] = target: EPH-B1 (Homo sapiens, UniProt P54762)
Procedure: (§1) Table S4: AMPKA kinase activity data (ADP-Glo assay)
(§2) Compound pIC50 (Fold selectivity
(§3) Table S5. Kinase selectivity screening for 9 and 24 at 1 µM against a general kinase panel of 140 targets
(§4) in radiometric filter binding assay using 33P-γ−ATP at the MRC PPU International Centre for Kinase
(§5) Profiling, University of Dundee. pIC50 values were determined for compounds with <20% activity
(§6) Kinase activity s.d. pIC50 activity s.d. pIC50

[2] = target: Lck (Homo sapiens, UniProt P06239)
Procedure: as §1, §2, §3, §4, §5, §6

[3] = target: FGF-R1 (Homo sapiens, UniProt P11362)
Procedure: as §1, §2, §3, §4, §5, §6

[4] = target: ABL (Homo sapiens, UniProt P00519)
Procedure: as §1, §2, §3, §4, §5, §6

[5] = target: OSR1 (Homo sapiens, UniProt O95747)
Procedure: as §1, §2, §3, §4, §5, §6

[6] = target: SYK (Homo sapiens, UniProt P43405)
Procedure: as §1, §2, §3, §4, §5, §6

[7] = target: WNK1 (Homo sapiens, UniProt Q9H4A3)
Procedure: as §1, §2, §3, §4, §5, §6

[8] = target: p38b MAPK (Homo sapiens, UniProt Q15759)
Procedure: as §1, §2, §3, §4, §5, §6

[9] = target: JNK1 (Homo sapiens, UniProt P45983)
Procedure: as §1, §2, §3, §4, §5, §6

[10] = target: HIPK2 (Homo sapiens, UniProt Q9H2X6)
Procedure: as §1, §2, §3, §4, §5, §6

[11] = target: IKKb (Homo sapiens, UniProt O14920)
Procedure: as §1, §2, §3, §4, §5, §6

[12] = target: MST4 (Homo sapiens, UniProt Q9P289)
Procedure: as §1, §2, §3, §4, §5, §6

[13] = target: PKA (Homo sapiens, UniProt P17612)
Procedure: as §1, §2, §3, §4, §5, §6

[14] = target: TAO1 (Homo sapiens, UniProt Q7L7X3)
Procedure: as §1, §2, §3, §4, §5, §6

[15] = target: EPH-B3 (Homo sapiens, UniProt P54753)
Procedure: as §1, §2, §3, §4, §5, §6

[16] = target: MINK1 (Homo sapiens, UniProt Q8N4C8)
Procedure: as §1, §2, §3, §4, §5, §6

[17] = target: PRK2 (Homo sapiens, UniProt Q16513)
Procedure: as §1, §2, §3, §4, §5, §6

[18] = target: p38d MAPK (Homo sapiens, UniProt O15264)
Procedure: as §1, §2, §3, §4, §5, §6

[19] = target: TGFBR1 (Homo sapiens, UniProt P36897)
Procedure: as §1, §2, §3, §4, §5, §6

[20] = target: PAK5 (Homo sapiens, UniProt Q9P286)
Procedure: as §1, §2, §3, §4, §5, §6

[21] = target: CHK2 (Homo sapiens, UniProt O96017)
Procedure: as §1, §2, §3, §4, §5, §6

[22] = target: ROCK 2 (Homo sapiens, UniProt O75116)
Procedure: as §1, §2, §3, §4, §5, §6

[23] = target: LKB1 (Homo sapiens, UniProt Q15831)
Procedure: as §1, §2, §3, §4, §5, §6

[24] = target: SmMLCK (Homo sapiens, UniProt Q15746)
Procedure: as §1, §2, §3, §4, §5, §6

[25] = target: IRAK4 (Homo sapiens, UniProt Q9NWZ3)
Procedure: as §1, §2, §3, §4, §5, §6

[26] = target: NEK2a (Homo sapiens, UniProt P51955)
Procedure: as §1, §2, §3, §4, §5, §6

[27] = target: HIPK3 (Homo sapiens, UniProt Q9H422)
Procedure: as §1, §2, §3, §4, §5, §6

[28] = target: Aurora B (Homo sapiens, UniProt Q96GD4)
Procedure: as §1, §2, §3, §4, §5, §6

[29] = test system: PHK
Procedure: as §1, §2, §3, §4, §5, §6

[30] = target: MPSK1 (Homo sapiens, UniProt O75716)
Procedure: as §1, §2, §3, §4, §5, §6

[31] = target: PIM1 (Homo sapiens, UniProt P11309)
Procedure: as §1, §2, §3, §4, §5, §6

[32] = target: JNK3 (Homo sapiens, UniProt P53779)
Procedure: as §1, §2, §3, §4, §5, §6

[33] = target: CHK1 (Homo sapiens, UniProt O14757)
Procedure: as §1, §2, §3, §4, §5, §6

[34] = target: DDR2 (Homo sapiens, UniProt Q16832)
Procedure: as §1, §2, §3, §4, §5, §6

[35] = target: EPH-A2 (Homo sapiens, UniProt P29317)
Procedure: as §1, §2, §3, §4, §5, §6

CHK2, sequence (O96017 whole entry): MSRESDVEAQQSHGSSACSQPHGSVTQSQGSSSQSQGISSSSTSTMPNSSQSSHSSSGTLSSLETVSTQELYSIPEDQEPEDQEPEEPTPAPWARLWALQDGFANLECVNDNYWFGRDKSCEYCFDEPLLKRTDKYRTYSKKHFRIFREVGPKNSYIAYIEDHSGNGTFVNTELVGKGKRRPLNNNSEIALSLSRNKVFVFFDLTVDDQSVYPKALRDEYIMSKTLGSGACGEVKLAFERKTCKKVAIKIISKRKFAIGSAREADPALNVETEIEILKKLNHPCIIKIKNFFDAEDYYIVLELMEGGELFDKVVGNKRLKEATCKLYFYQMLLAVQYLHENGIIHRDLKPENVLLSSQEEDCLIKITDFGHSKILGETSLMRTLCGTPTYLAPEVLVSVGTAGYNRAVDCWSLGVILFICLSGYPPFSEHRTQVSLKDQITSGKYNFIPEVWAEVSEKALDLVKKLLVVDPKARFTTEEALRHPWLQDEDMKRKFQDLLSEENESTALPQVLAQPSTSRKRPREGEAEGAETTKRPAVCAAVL
IKKb, sequence (O14920 whole entry): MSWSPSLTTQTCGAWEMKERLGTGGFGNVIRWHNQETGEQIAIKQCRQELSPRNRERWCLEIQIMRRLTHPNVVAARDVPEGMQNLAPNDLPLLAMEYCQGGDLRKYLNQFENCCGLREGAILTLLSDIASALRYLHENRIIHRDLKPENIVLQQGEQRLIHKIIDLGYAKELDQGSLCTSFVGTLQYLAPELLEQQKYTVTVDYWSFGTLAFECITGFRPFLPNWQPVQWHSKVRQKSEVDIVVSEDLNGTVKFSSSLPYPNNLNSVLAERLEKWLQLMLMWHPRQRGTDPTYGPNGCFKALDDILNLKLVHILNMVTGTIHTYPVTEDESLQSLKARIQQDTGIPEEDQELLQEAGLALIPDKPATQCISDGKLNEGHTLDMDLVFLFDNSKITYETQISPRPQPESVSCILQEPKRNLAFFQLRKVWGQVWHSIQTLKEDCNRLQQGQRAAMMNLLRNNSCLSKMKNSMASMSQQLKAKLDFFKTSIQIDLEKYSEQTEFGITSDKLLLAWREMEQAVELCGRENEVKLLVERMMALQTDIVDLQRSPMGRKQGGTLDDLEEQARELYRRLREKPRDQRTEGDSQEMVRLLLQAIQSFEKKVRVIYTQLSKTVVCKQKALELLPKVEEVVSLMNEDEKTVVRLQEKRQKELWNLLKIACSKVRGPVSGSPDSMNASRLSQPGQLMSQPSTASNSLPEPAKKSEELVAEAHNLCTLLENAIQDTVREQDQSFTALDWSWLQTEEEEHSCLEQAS
PIM1, sequence (P11309 whole entry): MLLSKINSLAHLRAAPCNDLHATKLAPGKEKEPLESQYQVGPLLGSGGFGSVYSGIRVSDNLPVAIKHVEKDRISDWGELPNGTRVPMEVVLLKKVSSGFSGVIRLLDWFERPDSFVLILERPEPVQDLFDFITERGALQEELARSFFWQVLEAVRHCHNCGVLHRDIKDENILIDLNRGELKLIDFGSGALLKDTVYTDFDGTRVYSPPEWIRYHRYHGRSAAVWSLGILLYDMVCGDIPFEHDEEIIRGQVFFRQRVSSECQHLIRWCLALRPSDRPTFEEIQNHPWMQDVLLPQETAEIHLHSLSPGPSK
NEK2a, sequence (P51955 whole entry): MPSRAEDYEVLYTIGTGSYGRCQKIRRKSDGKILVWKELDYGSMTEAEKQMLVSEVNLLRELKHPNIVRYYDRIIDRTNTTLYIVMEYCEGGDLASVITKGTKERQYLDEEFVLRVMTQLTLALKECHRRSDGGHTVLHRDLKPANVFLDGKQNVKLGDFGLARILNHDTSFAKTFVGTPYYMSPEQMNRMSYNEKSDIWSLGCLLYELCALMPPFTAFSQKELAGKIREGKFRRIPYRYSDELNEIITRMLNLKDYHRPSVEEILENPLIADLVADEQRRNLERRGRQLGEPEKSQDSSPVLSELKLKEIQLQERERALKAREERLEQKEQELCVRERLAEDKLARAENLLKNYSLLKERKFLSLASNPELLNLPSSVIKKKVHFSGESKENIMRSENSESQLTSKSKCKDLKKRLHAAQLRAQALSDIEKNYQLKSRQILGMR
TAO1, sequence (Q7L7X3 whole entry): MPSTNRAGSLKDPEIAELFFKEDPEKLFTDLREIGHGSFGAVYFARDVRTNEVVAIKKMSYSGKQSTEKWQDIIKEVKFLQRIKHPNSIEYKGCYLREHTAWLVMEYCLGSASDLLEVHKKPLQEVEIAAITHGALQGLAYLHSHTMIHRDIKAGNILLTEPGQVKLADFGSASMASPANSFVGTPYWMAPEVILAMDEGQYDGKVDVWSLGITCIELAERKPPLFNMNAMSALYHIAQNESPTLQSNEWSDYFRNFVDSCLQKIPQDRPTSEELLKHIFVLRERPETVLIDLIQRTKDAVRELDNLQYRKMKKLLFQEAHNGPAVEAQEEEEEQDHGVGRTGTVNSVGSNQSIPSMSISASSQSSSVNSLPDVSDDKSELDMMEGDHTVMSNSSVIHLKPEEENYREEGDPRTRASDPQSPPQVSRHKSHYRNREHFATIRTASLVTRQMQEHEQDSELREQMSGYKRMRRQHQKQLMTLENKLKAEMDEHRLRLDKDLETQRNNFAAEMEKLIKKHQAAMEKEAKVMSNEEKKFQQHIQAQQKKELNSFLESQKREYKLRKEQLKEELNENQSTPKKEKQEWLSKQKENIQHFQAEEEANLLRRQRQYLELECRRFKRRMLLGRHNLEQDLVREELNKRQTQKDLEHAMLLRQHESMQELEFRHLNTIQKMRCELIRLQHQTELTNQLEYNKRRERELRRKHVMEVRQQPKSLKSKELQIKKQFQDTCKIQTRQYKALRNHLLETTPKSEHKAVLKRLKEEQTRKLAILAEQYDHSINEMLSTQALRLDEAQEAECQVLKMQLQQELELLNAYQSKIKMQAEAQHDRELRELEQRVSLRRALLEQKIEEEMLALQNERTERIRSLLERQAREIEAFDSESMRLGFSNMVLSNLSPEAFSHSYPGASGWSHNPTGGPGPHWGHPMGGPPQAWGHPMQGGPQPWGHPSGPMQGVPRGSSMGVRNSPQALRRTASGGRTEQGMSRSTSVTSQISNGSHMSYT
TGFBR1, sequence (P36897 34-503): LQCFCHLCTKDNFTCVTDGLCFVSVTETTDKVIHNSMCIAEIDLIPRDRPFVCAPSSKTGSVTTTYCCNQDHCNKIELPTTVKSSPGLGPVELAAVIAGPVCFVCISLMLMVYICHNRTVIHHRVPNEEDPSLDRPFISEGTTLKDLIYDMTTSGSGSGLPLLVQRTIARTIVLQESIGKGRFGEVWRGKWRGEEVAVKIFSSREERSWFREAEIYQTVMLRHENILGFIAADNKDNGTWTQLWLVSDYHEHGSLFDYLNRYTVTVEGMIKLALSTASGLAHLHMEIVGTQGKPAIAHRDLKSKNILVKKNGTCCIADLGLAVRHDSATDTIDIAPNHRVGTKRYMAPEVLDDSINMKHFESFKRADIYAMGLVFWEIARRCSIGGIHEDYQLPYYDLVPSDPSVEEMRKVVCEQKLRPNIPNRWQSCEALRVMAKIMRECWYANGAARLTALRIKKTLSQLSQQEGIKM
MINK1, sequence (Q8N4C8 whole entry): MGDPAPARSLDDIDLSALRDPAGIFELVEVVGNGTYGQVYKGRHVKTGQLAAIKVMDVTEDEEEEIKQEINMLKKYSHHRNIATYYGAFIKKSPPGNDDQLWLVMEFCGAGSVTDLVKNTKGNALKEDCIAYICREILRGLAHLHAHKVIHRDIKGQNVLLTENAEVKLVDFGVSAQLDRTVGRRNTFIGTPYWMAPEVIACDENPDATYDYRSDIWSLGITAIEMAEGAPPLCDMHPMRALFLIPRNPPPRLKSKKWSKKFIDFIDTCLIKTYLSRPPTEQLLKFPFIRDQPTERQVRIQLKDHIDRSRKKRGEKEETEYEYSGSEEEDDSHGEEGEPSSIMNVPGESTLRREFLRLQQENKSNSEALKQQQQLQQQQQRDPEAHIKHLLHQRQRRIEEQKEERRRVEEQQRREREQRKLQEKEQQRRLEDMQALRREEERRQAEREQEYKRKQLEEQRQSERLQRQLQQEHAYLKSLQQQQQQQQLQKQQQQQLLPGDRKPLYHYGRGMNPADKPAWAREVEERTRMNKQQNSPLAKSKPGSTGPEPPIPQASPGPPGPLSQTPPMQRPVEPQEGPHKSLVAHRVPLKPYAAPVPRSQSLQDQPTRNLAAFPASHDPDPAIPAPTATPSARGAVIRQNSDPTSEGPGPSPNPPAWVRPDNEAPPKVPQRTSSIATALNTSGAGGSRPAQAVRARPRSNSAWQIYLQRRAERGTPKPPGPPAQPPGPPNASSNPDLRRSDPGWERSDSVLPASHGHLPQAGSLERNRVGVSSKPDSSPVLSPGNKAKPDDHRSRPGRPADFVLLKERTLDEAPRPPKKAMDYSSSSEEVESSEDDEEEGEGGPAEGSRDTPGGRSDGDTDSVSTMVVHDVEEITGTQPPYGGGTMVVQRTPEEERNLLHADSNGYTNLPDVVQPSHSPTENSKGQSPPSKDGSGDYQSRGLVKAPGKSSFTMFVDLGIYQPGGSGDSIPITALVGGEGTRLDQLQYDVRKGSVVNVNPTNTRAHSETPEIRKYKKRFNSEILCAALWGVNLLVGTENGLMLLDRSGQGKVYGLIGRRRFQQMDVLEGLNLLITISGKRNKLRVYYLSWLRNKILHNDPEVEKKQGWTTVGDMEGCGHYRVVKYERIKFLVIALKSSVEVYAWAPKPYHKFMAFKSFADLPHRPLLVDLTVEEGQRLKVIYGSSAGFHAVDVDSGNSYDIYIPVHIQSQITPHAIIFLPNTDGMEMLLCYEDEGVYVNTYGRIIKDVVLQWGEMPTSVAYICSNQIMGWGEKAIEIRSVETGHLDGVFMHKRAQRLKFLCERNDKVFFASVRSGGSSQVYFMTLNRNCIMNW

Cc1cc(=O)n(C2CCCC2)c2nc(Nc3ccc(N4CC5CC(C4)N5C)cc3)ncc12 [Compound 9]
% activity remaining [1]: 51% | % activity remaining [2]: 64% | % activity remaining [3]: 56% | % activity remaining [4]: 41% | % activity remaining [5]: 67% | % activity remaining [6]: 49% | % activity remaining [7]: 103% | % activity remaining [8]: 91% | % activity remaining [9]: 47% | % activity remaining [10]: 54% | % activity remaining [11]: 93% | % activity remaining [12]: 61% | % activity remaining [13]: 84% | % activity remaining [14]: 91% | % activity remaining [15]: 95% | % activity remaining [16]: 30% | % activity remaining [17]: 75% | % activity remaining [18]: 94% | % activity remaining [19]: 92% | % activity remaining [20]: 64% | % activity remaining [21]: 72% | % activity remaining [22]: 56% | % activity remaining [23]: 104% | % activity remaining [24]: 61% | % activity remaining [25]: 100% | % activity remaining [26]: 36% | % activity remaining [27]: 112% | % activity remaining [28]: 61% | % activity remaining [29]: 56% | % activity remaining [30]: 114% | % activity remaining [31]: 90% | % activity remaining [32]: 30% | % activity remaining [33]: 57% | % activity remaining [34]: 39% | % activity remaining [35]: 77%

CN1C2CC1CN(c1ccc(Nc3ncc4ccn(CC5CCOCC5)c4n3)cc1)C2 [Compound 24]
% activity remaining [1]: 87% | % activity remaining [2]: 67% | % activity remaining [3]: 81% | % activity remaining [4]: 56% | % activity remaining [5]: 70% | % activity remaining [6]: 81% | % activity remaining [7]: 84% | % activity remaining [8]: 108% | % activity remaining [9]: 97% | % activity remaining [10]: 85% | % activity remaining [11]: 103% | % activity remaining [12]: 92% | % activity remaining [13]: 90% | % activity remaining [14]: 97% | % activity remaining [15]: 77% | % activity remaining [16]: 79% | % activity remaining [17]: 71% | % activity remaining [18]: 110% | % activity remaining [19]: 75% | % activity remaining [20]: 99% | % activity remaining [21]: 98% | % activity remaining [22]: 78% | % activity remaining [23]: 100% | % activity remaining [24]: 102% | % activity remaining [25]: 71% | % activity remaining [26]: 77% | % activity remaining [27]: 73% | % activity remaining [28]: 64% | % activity remaining [29]: 92% | % activity remaining [30]: 76% | % activity remaining [31]: 84% | % activity remaining [32]: 107% | % activity remaining [33]: 75% | % activity remaining [34]: 82% | % activity remaining [35]: 76%

Source: article PMC11831560, “Development of the Pyrido[2,3-d]pyrimidin-7(8H)-one Scaffold toward Potent and Selective NUAK1 Inhibitors” (ACS Medicinal Chemistry Letters, 2025)
